Measurements as given in patent US11841369B2, “Method for improving quality of therapeutic cell through real-time glutathione measurement” (CELL2IN, INC., priority 2017, dated 2023).

Key:
human dermal fibroblasts = assay: mGSH distribution after RSL3 in human dermal fibroblasts, confocal imaging; format: cell-based; conditions: as the subculture continued
Protocol: As described in the experiment for MSCs, human dermal fibroblasts subcultured several times were treated with RSL3 and the cells were stained with MitoFreSH-Tracer, and a ratio between cells maintaining mGSH and cells not maintaining mGSH was represented as a percentage through confocal imaging.

hUC-MSCs [1] = assay: CD146 surface expression in mGSH^High and mGSH^Low cells after RSL3, flow cytometry; format: cell-based, human; conditions: P4 hUC-MSC, compared with mGSH level-maintaining group
Excerpt: To confirm whether the stem cell function of cells in which an mGSH level decreased is deteriorated under lipid oxidative stress caused by RSL3 treatment, an expression level of CD146, which is a cell surface protein known to be highly expressed in stem cells of high quality according to conventional literature, was confirmed through flow cytometry.
The cells were stained by the same method as a method of measuring a mitochondria GSH level through the flow cytometry as described above, and detached from the plate using trypsin. The detached cells were treated with an antibody for flow cytometry with respect to CD146 to which a fluorescent material BUV395 was bound at 4° C. for 30 minutes, and washed with PBS. Using a flow cytometer, F510 and F580 fluorescence values for measuring a GSH level and a BUV395 fluorescence value for measuring CD146 expression were measured. Afterward, based on the point at which the histogram showing the F510/F580 distribution was divided into two peaks, the cells were divided into GSH^High cells (right peak) and GSH^Low cells (left peak) using FlowJo software, and a CD146-positive ratio of the corresponding cells is represented as a percentage (%).

hUC-MSCs [2] = assay: Mitochondrial GSH (mGSH) distribution after RSL3, MitoFreSH-Tracer, flow cytometry and confocal imaging; format: cell-based, human
Protocol: After the cultured human umbilical cord-derived mesenchymal stem cells (hUC-MSCs) at passage 4, 7 or 15 were treated with various concentrations of RSL3 and stained with MitoFreSH, the distribution pattern of mitochondrial GSH (mGSH) in the cells was confirmed by histograms using flow cytometry and confocal imaging.
hUC-MSCs at passage 4, 7 or 15 were prepared, seeded at 70000 cells/well in a 6-well cell culture plate, and cultured at 37° C. for 24 hours. The medium used in the culture was prepared by adding 10% fetal bovine serum and 1× penicillin-streptomycin to α-MEM. […] The cells detached from the plate were transferred to an FACS tube and stored on ice, and a fluorescence level was measured using a flow cytometer.
hUC-MSCs at passage 4, 7 or 15 were prepared, seeded at 7000 cells/100 μl per well in a 96-well cell culture plate, and cultured at 37° C. for 24 hours. […] To remove MitoFreSH-Tracer from the medium before measurement, the medium was exchanged with fresh 10 mM HEPES-containing HBSS, and fluorescence images were measured using a confocal imaging system, Operetta.
A F510/F580 ratio referring to a GSH mean value in cells was calculated by measuring fluorescence values of F510 (fluorescence value when MitoFreSH-Tracer was bound with SH) and F580 (fluorescence value of MitoFreSH-Tracer, which was not bound with SH) in cells and dividing the F510 value by the F580 value. […]

hUC-MSCs [3] = assay: CFU-F assay of hUC-MSCs; format: cell-based, human; conditions: ferrostatin-1 0.2, 1, 2, 4 μM or liproxstatin-1 0.1, 0.5, 1, 2 μM, 24 hours
Protocol: The inventors observed an effect of the material on stem cells by treating each stem cells with a material for enhancing a glutathione evaluation parameter. When hUC-MSCs were subcultured in a L-AA2G-containing medium, CFU-F, migration capacity, and an anti-inflammatory effect were observed. A CFU-F assay (n=3) was performed by treating hUC-MSCs with 125 or 250 μg/mL of AA2G for three days. As shown in FIGS. 16A and 16B, it was confirmed that, when AA2G was treated, CFU-F increased. In addition, as hUC-MSCs were treated with 125 or 250 μg/mL of AA2G for three days, PDGF-AA-induced migration capacity (n=3) was analyzed. As shown in FIGS. 17A and 17B, it was confirmed that the migration capacity was increased by AA2G treatment. In addition, the reduction in T cell proliferation, a reduction in T cell differentiation, and the promotion of Treg cell differentiation were observed by treating hUC-MSCs with 125 or 250 μg/mL of AA2G for three days. […] Meanwhile, hUC-MSCs were cultured with a glutathione precursor such as γ-glutamyl cysteine (GGC, 0.1, 0.25, and 0.5 mM). A CFU-F assay (n=3) was performed by treating hUC-MSCs with each concentration of GGC for 2 hours. […] In addition, SDF1α and PDGF-AA-induced migration capacities (n=3) were analyzed for hUC-MSCs without treatment with GGC, and SDF1α- and PDGF-AA-induced migration abilities (n=3) were analyzed by treating hUC-MSCs with the increasing concentrations of GGC. STI571 was used as a PDGFR kinase inhibitor. As shown in FIGS. 20A to 20C, it was confirmed that, according to an increase in GGC treatment concentration, SDF1α- and PDGF-AA-induced migration capacities were enhanced. A CFU-F assay (n=3) was performed by treating hUC-MSCs with 0.2, 1, 2, and 4 μM ferrostatin-1 and 0.1, 0.5, 1, and 2 μM liproxstatin-1 for 24 hours.

T cells = assay: Anti-inflammatory effect of treated hUC-MSCs: T cell proliferation, T cell differentiation, Treg cell differentiation; format: cell-based
Protocol: The inventors observed an effect of the material on stem cells by treating each stem cells with a material for enhancing a glutathione evaluation parameter. When hUC-MSCs were subcultured in a L-AA2G-containing medium, CFU-F, migration capacity, and an anti-inflammatory effect were observed. A CFU-F assay (n=3) was performed by treating hUC-MSCs with 125 or 250 μg/mL of AA2G for three days. As shown in FIGS. 16A and 16B, it was confirmed that, when AA2G was treated, CFU-F increased. In addition, as hUC-MSCs were treated with 125 or 250 μg/mL of AA2G for three days, PDGF-AA-induced migration capacity (n=3) was analyzed. As shown in FIGS. 17A and 17B, it was confirmed that the migration capacity was increased by AA2G treatment. In addition, the reduction in T cell proliferation, a reduction in T cell differentiation, and the promotion of Treg cell differentiation were observed by treating hUC-MSCs with 125 or 250 μg/mL of AA2G for three days.
In addition, hUC-MSCs were cultured with ferrostatin-1 (0.2, 1, 2 and 4 μM) and liproxstatin-1 (0.1, 0.5, 1 and 2 μM), which control a glutathione level in cells by inhibiting lipid oxidation. […] Meanwhile, the hUC-MSCs were treated with 1 μM ferrostatin-1 for 24 hours, 0.2 mM GGC for 2 hours, and 2 mM GSH-EE for 2 hours. As a result, the reduction in T cell proliferation ability and the reduction in T cell differentiation capacity were observed, and promotion of Treg cell differentiation was observed.

[4] = hUC-MSCs treated with 1 μM ferrostatin-1 24 h, 0.2 mM GGC 2 h or 2 mM GSH-EE 2 h

| Compound | proportion of cells in which mGSH decreases by treatment with RSL3 (human dermal fibroblasts) | lowering of CD146-positive ratio in group in which mGSH level is lowered by RSL3 (hUC-MSCs [1]) | mGSH levels (hUC-MSCs [2]; hUC-MSCs passage 4, 7 or 15, RSL3 0.1/0.5/1 μM, dependent on RSL3 concentration and passage number) | CFU-F (hUC-MSCs [3]) | effect of RSL3 on mGSH upon Ferrostatin-1 treatment (hUC-MSCs [2]; hUC-MSCs treated with RSL3 (FIG. 33)) | anti-inflammatory effect of the hUC-MSCs (T cells; ferrostatin-1 or liproxstatin-1 treatment (FIGS. 27, 28A to 28C)) | T cell differentiation capacity (T cells; [4]) | T cell proliferation ability (T cells; [4]) | Treg cell differentiation (T cells; [4]) |
| --- | --- | --- | --- | --- | --- | --- | --- | --- | --- |
| COC(=O)c1ccc([C@@H]2c3[nH]c4ccccc4c3C[C@@H](C(=O)OC)N2C(=O)CCl)cc1 [RSL3, 1S,3R-RAS-selective lethal 3] | increased | approximately 25% | reduced | – | – | – | – | – | – |
| CCOC(=O)c1ccc(NC2CCCCC2)c(N)c1 [ferrostatin-1] | – | – | – | improved | disappeared | did not alter | reduction | reduction | promotion |
